The values that follow come from patent publication US6992085B2, “Octahydro-2H-pyrido[1,2-a]pyrazine compounds” (Les Laboratories Servier, priority 2001, dated 2006).

This experiment addresses T1, type H3 central histamine receptors (Mus musculus, UniProt P58406).
T1 construct: from tissue
The experiment in a line: Cerebral dosages of N^t-methylhistamine in the NMRI mouse (ex vivo, RIA). To be noted: NMRI mice, brain one hour after treatment, versus carrier controls. How it is done: The purpose of this study, which was carried out in accordance with the method of Taylor et al. (Biochem. […] An increase in the cerebral concentrations of N^t-methylhistamine indicates an increase in the turn-over of histamine by blockage of the type H3 central histamine receptors. […] One hour after the pharmacological treatment, the animals are sacrificed, and their brains are removed, frozen in liquid nitrogen, weighed and homogenised in 0.1N HClO4 at 4° C. […] The supernatants are recovered and divided into aliquots. The aliquots are frozen in liquid nitrogen and stored at −80° C. until analysis. Determination of the cerebral levels of N^t-methylhistamine is carried out by radioimmunological assay (RIA) using an assay kit. The tissue levels of N^t-methylhistamine are expressed in μg/g of fresh brain. The comparison of the cerebral levels of N^t-methylhistamine between animals treated with the carrier (controls) and animals treated with compounds of the present invention is carried out by single factor variance analysis followed, if necessary, by a complementary analysis (Dunnett test).

T1 sequence (P58406 whole entry): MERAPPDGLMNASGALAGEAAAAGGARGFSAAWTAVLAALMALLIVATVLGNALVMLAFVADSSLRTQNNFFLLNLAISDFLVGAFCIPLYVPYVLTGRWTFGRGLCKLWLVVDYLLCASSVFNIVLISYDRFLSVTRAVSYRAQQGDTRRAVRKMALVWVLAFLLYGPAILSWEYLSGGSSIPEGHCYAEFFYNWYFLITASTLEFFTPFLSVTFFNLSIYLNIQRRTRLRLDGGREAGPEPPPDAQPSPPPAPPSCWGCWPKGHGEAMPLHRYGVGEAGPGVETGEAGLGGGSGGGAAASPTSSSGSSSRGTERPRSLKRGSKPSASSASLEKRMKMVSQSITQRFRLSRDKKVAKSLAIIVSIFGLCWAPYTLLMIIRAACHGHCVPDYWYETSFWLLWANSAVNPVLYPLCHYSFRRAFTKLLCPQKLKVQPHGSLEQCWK

Turning to `N#Cc1ccc(OCCCN2CCN3CCCCC3C2)cc1.O=C(O)/C=C/C(=O)O.O=C(O)/C=C/C(=O)O` (single isomer, unassigned) [Example 58, 4-(3-octahydro-2H-pyrido[1,2-a]pyrazin-2-ylpropoxy)benzonitrile difumarate, enantiomer β], the “increase in endogenous cerebral concentrations of N^t-methylhistamine” value (shortened to “increase”) (10 mg/kg IP, 10 mg/kg) worked out at 236%.
Take `Cl.Cl.Cl.c1ccc2c(c1)ncn2CCCCN1CCN2CCCCC2C1` (stereo not shown) [Example 53, 2-[4-(1H-Benzimidazol-1-yl)butyl]octahydro-2H-pyrido[1,2-a]pyrazine trihydrochloride]: the “increase” value (30 mg/kg IP) worked out at 89%.
With `Cl.Cl.c1ccc2c(c1)cnn2CCCCN1CCN2CCCCC2C1` (stereo not shown) [Example 55, 2-[4-(1H-Indazol-1-yl)butyl]octahydro-2H-pyridol[1,2-a]pyrazine dihydrochloride], the “increase” value (30 mg/kg IP) is reported as 124%.
`N#Cc1ccc(OCCCN2CCN3CCCCC3C2)cc1.O=C(O)/C=C/C(=O)O.O=C(O)/C=C/C(=O)O` (stereo not shown) [Example 56, 4-(3-Octahydro-2H-pyrido[1,2-a]pyrazin-2-ylpropoxy)benzonitrile difumarate]: the “increase” value (10 mg/kg IP, difumarate, 10 mg/kg) came out at 252%.
